Test results as given in patent publication US20230372263A1, “METHODS AND COMPOSITIONS FOR TREATING AMYOTROPHIC LATERAL SCLEROSIS” (Amylyx Pharmaceuticals, Inc., priority 2022, published 2023).

Legend:
clinical [1] = type: in vivo, human; conditions: human, in vivo
Protocol: (§1) • Protocol AMX3500: sparse sampling in 87 subjects with ALS. Approximately 2 samples are collected for each subject, 1 or 4 hours post dose following 12 and 24 weeks of treatment. • Protocol A35-002: rich sampling in 14 healthy adults. Approximately 21 samples are collected over 24 hours for each subject on two occasions, once following a high fat meal and the other under fasting conditions.
A total of 14 healthy subjects were enrolled in order to have no fewer than 12 subjects complete. A predefined mix of gender was selected.
Each study period followed the same study design (FIG. 1). Subjects were screened for inclusion in the study up to 28 days before dosing. Subjects were admitted to the clinical unit during Study Day −2 for Period 1 and Day −1 for Period 2 and were dosed in the morning of Day 1. On the night prior to Period 1 the subjects in the fasted/fed or fed/fasted sequence were fasted for a minimum of 10 h prior to dosing.
The solution was stirred until the powder was mostly dissolved.
Any departures from the intended regimen were recorded in the eCRFs. All dose administrations were performed in the study center under the supervision of appropriately trained staff.
Subjects were provided with a light snack and were then fasted from all food and drink (except water) until the following morning, when they were provided with a high-fat breakfast. The breakfast was consumed over a maximum period of 25 min, and dosing occurred 30 min after the start of breakfast. Subjects were encouraged to eat their meal evenly over the 25 min period. For this trial the subject was deemed compliant if they consumed >80% of the high-fat standard breakfast.
The subjects in the 24-h baseline and in the fasted condition Period remained fasted up to 4 h post-dose and were offered a standardized meal to be taken between 4.00 and 5.00 h post-dose. Subjects in the fed condition were fasted overnight and received a high-fat standard breakfast 30 minutes pre-dose and then remained fasted for 4.00 to 5.00 h post-dose when they received a standardized meal.
Venous blood samples were withdrawn via an indwelling cannula or by venipuncture according to the time schedule presented in Table 5 Table, Table 6, and Table 7.
Blood samples of approximately 4 mL were collected into 4 mL BD Vacutainer Plastic K2EDTA Tubes with Lavender Hemogard Closure, and was gently inverted approximately 8 times. The tubes were then immediately stored on ice and processed within 60 min of collection by centrifugation at 1500 g for 10 min at 2 to 8° C. The resultant plasma was separated equally into 2 aliquots and transferred to 2 mL appropriately labelled primary and backup polypropylene cryovials.
Actual elapsed time from dosing was to be used for the final plasma PK parameter calculations after database lock.

clinical [2] = type: in vivo, human; conditions: human, in vivo; remark: listed apart in the source
Protocol: • 1. […] Treatment is administered as one sachet daily for the initial 3 weeks and then increased if tolerated to one sachet twice daily. […] Sampling times are randomly assigned to occur at either 1 or 4 hours post-dose at the 12 week visit and the other time at the 24 week visit. • Treatment duration: 24 weeks • 2.
as §1
Subjects were advised to take the drug before a meal. […] Referred to as protocol 3500.
A study was carried out to examine plasma concentration data in various subgroups for the protocol AMX3500 Phase 2 study. This example summarizes plasma concentrations of TUDCA and 2 metabolites, also related acids, UDCA, the de-conjugated TUDCA metabolite, and GUDCA, the glycine conjugate of UDCA.
For each of the 2 treatment arms (treatment and placebo), subjects were further divided into 2 sample sequence groups for schedule of pharmacokinetic measurements: • 1. 1 hour post-dose for the Week 12 visit and 4 hours post-dose for the Week 24 visit • 2. 4 hours post-dose for the Week 12 visit and 1 hour post-dose for the Week 24 visit
Twenty-four distinct medication descriptions were identified as containing antibiotics. Dates of antibiotic use were compared to dates of visits and if the antibiotic use date range contained the visit date, then that visit was flagged for that subject's data for antibiotic use. […] These antibiotics could hypothetically be in a subject's body still if this event occurred. However, it was observed that only a small number of subjects took antibiotics near to visit dates but not overlapping visit dates. In other cases, subjects were taking antibiotics on the date of one visit but not the others. Some subjects are therefore in both categories of antibiotic use and nonuse, though no individual visits for a subject are counted in both categories at the same time.
Subjects whose race were recorded as “Black” or “African American” were evaluated according to the standard Glomerular Filtration Rate (eGFR) rating for that race. The other standard eGFR rating used, sometimes referred to as a standard for people who are White, was applied to subjects of all other races. These rates were analyzed as continuous in mL/min/1.73 m2 units and as the following categories: • 1. Less than 90 mL/min/1.73 m^2 • 2. Equal to or greater than 90 mL/min/1.73 m^2
Age was converted from a continuous variable to 2 categories: • 1. As old or older than 65 years old • 2. Younger than 65 years old
All boxplots boxes are bounded at the 25th and 75th percentile, with whiskers at 10th and 90th percentiles, outliers beyond that as points, the black line as median, and red line as mean.

[3] = Population pharmacokinetic model and simulations of PB and PAA (healthy subjects and ALS patients); parameters: species or system human; conditions: for Cmax, Mean: from individual Bayesian (post hoc) parameter estimates; for Cmax, 2.5th percentile / Cmax, 97.5th percentile / Cmax, Geometric mean / Cmax, Median: post hoc Bayesian estimates; for CL/F, apparent (oral) metabolic clearance of phenylbutyrate to phenylacetate / Ka, PB oral absorption rate constant under fasting conditions / Ka, oral absorption rate constant when phenylbutyrate is administered with food / V/F, apparent volume of distribution of phenylbutyrate: population PK
Excerpt: The order of administration with and without food was randomly assigned. […] Subjects were advised to take the drug before a meal. […] No inter-occasion variability (IOV) was included.

[4] = Plasma protein binding in vitro; type: in vitro ADME; conditions: plasma, co-administered in vitro
[5] = within 24 hours; cited from earlier work

O=C(O)CCCc1ccccc1 [PB, sodium phenylbutyrate]
half-life (clinical [1]; both sexes, T1/2): 27.6 min
Tmax (clinical [1]; both sexes, Tmax): 30 min
Tmax (clinical [1]; both sexes, Tmax Median): 30 min
half-life (clinical [1]; both sexes, elimination half-lives (range)): 24 to 42.6 min
Cmax (clinical [1]; both sexes, mean Cmax): 188 µg/mL
Cmax (clinical [1]; both sexes, po, Cmax): 188 µg/mL
AUC(0-inf) Adj Geo Mean (clinical [1]; both): 261 µg·h/mL
AUC(0-last), Adj Geo Mean (clinical [1]; both): 241 µg·h/mL
Cmax, Adj Geo Mean (clinical [1]; both): 191 µg/mL
Tmax (clinical [1]; both): 15 min
concentrations remained quantifiable until (clinical [1]; both): 3.00 to 5.00 h
decrease in AUC with high-fat, high-calorie meal (clinical [1]; both): 55%
time at which plasma concentrations typically peaked (clinical [1]; both): 0.5 to 1 h
time by which eliminated from systemic circulation (clinical [1]; both): ≤ 6 h
time by which plasma concentrations fell below LLOQ (clinical [1]; both): 4 to 5 h
time from which plasma concentrations were evident (clinical [1]; both): 0.25 h
time of maximum plasma concentrations (range) (clinical [1]; both): 0.25 to 0.50 h
median time to Cmax (clinical [1]): 1 h
accumulation in plasma after once- or twice-daily dosing (clinical [2]): no accumulation
effect of age on pharmacokinetics ([3]; ALS patients aged 65-76 versus less than 65 years, model-based analysis): no significant difference
Cmax, Mean ([3]; ALS patients, Fasting): 131 µg/mL
Cmax, 2.5th percentile ([3]; ALS patients, Fasting): 10.3 µg/mL
Cmax, 97.5th percentile ([3]; ALS patients, Fasting): 414 µg/mL
Cmax, Geometric mean ([3]; ALS patients, Fasting): 90.9 µg/mL
Cmax, Median ([3]; ALS patients, Fasting): 97.9 µg/mL
Cmax, Mean ([3]; ALS patients, Fed): 48.4 µg/mL
Cmax, 2.5th percentile ([3]; ALS patients, Fed): 8.74 µg/mL
Cmax, 97.5th percentile ([3]; ALS patients, Fed): 112 µg/mL
Cmax, Geometric mean ([3]; ALS patients, Fed): 39.4 µg/mL
Cmax, Median ([3]; ALS patients, Fed): 43.9 µg/mL
estimated steady-state mean Cmax ([3]; ALS patients, based on population PK): 131 µg/mL
terminal elimination half-life ([3]; based on typical values for CLPB/F and VPB/F): 27 min
effect of mild renal insufficiency on pharmacokinetics ([3]; eGFR greater than 60 mL/min, model-based analysis): no significant correlation
decrease in Ka, fed versus fasting ([3]; final model projection): 60%
relationship between exposure and body weight ([3]; population PK analysis): not appreciably affected by body weight
CL/F, apparent (oral) metabolic clearance of phenylbutyrate to phenylacetate ([3]; Bootstrap Median): 14.7 L/h
Ka, PB oral absorption rate constant under fasting conditions ([3]; Bootstrap Median): 1.96
Ka, oral absorption rate constant when phenylbutyrate is administered with food ([3]; Bootstrap Median): 0.779
V/F, apparent volume of distribution of phenylbutyrate ([3]; Bootstrap Median): 9.7 L
CL/F, apparent (oral) metabolic clearance of phenylbutyrate to phenylacetate ([3]; Final Model mean estimate): 14.8 L/h
Ka, PB oral absorption rate constant under fasting conditions ([3]; Final Model mean estimate): 1.92
Ka, oral absorption rate constant when phenylbutyrate is administered with food ([3]; Final Model mean estimate): 0.767
V/F, apparent volume of distribution of phenylbutyrate ([3]; Final Model mean estimate): 9.6 L
fraction unbound [4]: 0.18
fraction excreted in the urine as phenylacetylglutamine [5]: 80-100%
